In brackets after ≈: the same amount, converted by molar mass. Read-outs that look alike come from different tables or passages of the source.
Tests used:
[1] = Release rate into plasma (conversion into Nimodipine); format: in vitro ADME; conditions: rat, rat anticoagulated plasma, 37° C., HPLC
Description: A portion of compound 6 was throughly mixed with rat anticoagulated plasma and incubated at 37° C. The drug was extracted with acetonitrile at different time points for HPLC analysis.
The compound sample prepared according to the above examples was dissolved in brine in an appropriate amount to formulate into a stock solution between 0.3 and 0.4 mg/mL. 20 μL of stock solution was added into the rat anticoagulated plasma previously incubated at 37° C. for 2 mins, which were throughly mixed, and incubated at 37° C. 100 μL of samples were taken at different time points, and an equal amount of acetonitrile was added to precipitate proteins, then centrifugated and the supernatant was sampled for HPLC analysis.

Solubility in water = format: physicochemical; conditions: pure water, thermodynamic from solid
Description: The compound sample prepared according to the above examples was accurately weighed in an appropriate amount, and pure water was added dropwise with a microsyringe while shaking until the solution became clear. The amounts of the sample and pure water were recorded and converted into mg/mL, as the solubility of the sample. The result was shown in the following table, and the original drug, i.e. Nimodipine, was used as a control.

[2] = read-out: release rate into plasma t1/2
[3] = read-out: half-life for converting compound into Nimodipine in blood (converted)
[4] = water at room temperature, read-out: solubility in water

| Structure (SMILES) | half-life [1, 2] [h] | solubility (Solubility in water; read-out: solubility) [mg/mL] | half-life [1, 3] [h] | solubility (Solubility in water; [4]) [mg/mL] |
| --- | --- | --- | --- | --- |
| COCCOC(=O)C1=C(C)N(C(=O)OC(C)OC(=O)[C@H](C)N)C(C)=C(C(=O)OC(C)C)C1c1cccc([N+](=O)[O-])c1.Cl (some centres unmarked) [Compound 23] | < 0.5 | > 50 | – | – |
| COCCOC(=O)C1=C(C)N(C(=O)OCOC(=O)[C@@H](N)CCCCN)C(C)=C(C(=O)OC(C)C)C1c1cccc([N+](=O)[O-])c1 (some centres unmarked) [Compound 9] | ~2.5 | > 50 | ~2.5 | 230 (≈ 371 mM) |
| COCCOC(=O)C1=C(C)N(C(=O)OCOC(=O)CCCN)C(C)=C(C(=O)OC(C)C)C1c1cccc([N+](=O)[O-])c1.Cl (centres unmarked) [Compound 30] | < 0.5 | > 50 | – | – |
| COCCOC(=O)C1=C(C)N(COP(=O)(O)O)C(C)=C(C(=O)OC(C)C)C1c1cccc([N+](=O)[O-])c1 (centres unmarked) [Compound 12] | < 0.5 | > 50 | < 0.5 | 80 (≈ 151 mM) |
| COCCOC(=O)C1=C(C)N(C(=O)OCOC(=O)CC[C@H](N)C(N)=O)C(C)=C(C(=O)OC(C)C)C1c1cccc([N+](=O)[O-])c1.Cl (some centres unmarked) [Compound 41] | < 0.5 | > 50 | – | – |
| COCCOC(=O)C1=C(C)NC(C)=C(C(=O)OC(C)C)C1c1cccc([N+](=O)[O-])c1 (centres unmarked) [Nimodipine] | – | 0.003 (≈ 0.00717 mM) | – | – |
| COCCOC(=O)C1=C(C)N(C(=O)OCOC(=O)C2CCNCC2)C(C)=C(C(=O)OC(C)C)C1c1cccc([N+](=O)[O-])c1.Cl (centres unmarked) [Compound 32] | < 0.5 | > 50 | – | – |
| COCCOC(=O)C1=C(C)N(C(=O)OC(C)OC(=O)CCCN)C(C)=C(C(=O)OC(C)C)C1c1cccc([N+](=O)[O-])c1.Cl (centres unmarked) [Compound 28] | < 0.5 | > 50 | – | – |
| COCCOC(=O)C1=C(C)N(C(=O)OCOC(=O)CC2CCNCC2)C(C)=C(C(=O)OC(C)C)C1c1cccc([N+](=O)[O-])c1.Cl (centres unmarked) [Compound 38] | < 0.5 | > 50 | – | – |
| COCCOC(=O)C1=C(C)N(C(=O)OCOC(=O)[C@@H](N)CC(C)C)C(C)=C(C(=O)OC(C)C)C1c1cccc([N+](=O)[O-])c1.Cl (some centres unmarked) [Compound 20] | < 0.5 | > 50 | – | – |

More lines, now with the values ahead:

| half-life [1, 2] [h] | solubility (Solubility in water; read-out: solubility) [mg/mL] | half-life [1, 3] [h] | solubility (Solubility in water; [4]) [mg/mL] | Structure (SMILES) |
| --- | --- | --- | --- | --- |
| < 1.5 | > 50 | ~1.5 | 105 (≈ 183 mM) | COCCOC(=O)C1=C(C)N(C(=O)OCOP(=O)(O)O)C(C)=C(C(=O)OC(C)C)C1c1cccc([N+](=O)[O-])c1 (centres unmarked) [Compound 8] |
| ~1.5 | > 50 | ~1.5 | 120 (≈ 203 mM) | COCCOC(=O)C1=C(C)N(C(=O)OCOC(=O)/C=C/C(=O)O)C(C)=C(C(=O)OC(C)C)C1c1cccc([N+](=O)[O-])c1 (centres unmarked) [Compound 6] |
| < 1 | > 50 | – | – | COCCOC(=O)C1=C(C)N(C(=O)OCOC(=O)/C=C/C(=O)[O-])C(C)=C(C(=O)OC(C)C)C1c1cccc([N+](=O)[O-])c1.[Na+] (centres unmarked) [Compound 39] |
| < 0.5 | > 50 | – | – | COCCOC(=O)C1=C(C)N(C(=O)OCOC(=O)CCN)C(C)=C(C(=O)OC(C)C)C1c1cccc([N+](=O)[O-])c1.Cl (centres unmarked) [Compound 26] |
| < 0.5 | > 50 | – | – | COCCOC(=O)C1=C(C)N(C(=O)OCOC(=O)[C@H](C)N)C(C)=C(C(=O)OC(C)C)C1c1cccc([N+](=O)[O-])c1.Cl (some centres unmarked) [Compound 18] |
| < 0.5 | > 50 | – | – | CNCC(=O)OCOC(=O)N1C(C)=C(C(=O)OCCOC)C(c2cccc([N+](=O)[O-])c2)C(C(=O)OC(C)C)=C1C.Cl (centres unmarked) [Compound 16] |
| < 1 | > 50 | – | – | COCCOC(=O)C1=C(C)N(C(=O)OC(C)OC(=O)/C=C/C(=O)[O-])C(C)=C(C(=O)OC(C)C)C1c1cccc([N+](=O)[O-])c1.[K+] (centres unmarked) [Compound 24] |

Source: patent publication US20180303810A1, “Nimodipine Water-Soluble Derivative, And Preparation Method And Use Thereof” (Guangzhou Henovcom Bioscience Co., Ltd., priority 2015, published 2018)
